What was measured:
[1] = tested on: human skeletal myocytes (HSkM); test: MHC-positive myotube formation in primary human skeletal myocytes; format: cell-based; settings: HSkM treated 24 hours in GM, then DM without TSA 48 hours
Protocol: Cellular extracts were obtained and analyzed by Western blotting for the presence of MHC, tubulin, and myogenin. […] Nuclei were stained with DAPI. […] Additionally, RT-PCR was performed on RNA obtained form cells treated with TSA (T) or without (-) TSA with specific primers for either MCK or GAPDH. […] Nuclei were stained with DAPI. […] Cells were grown in GM and treated with TSA for 24 hours, then switched to DM in the absence of TSA for additional 48 hours. Nuclei were stained with DAPI. Additionally, a Western blot analysis of MHC and tubulin expression in either untreated or TSA-treated (T) HSkM is shown. […] Nuclei were stained with DAPI. Mouse muscle myoblast C2C12 cells (obtained from the American Type Culture Collection, ATCC CRL-1772) and CC42 cells (from Dr. Kenneth Walsh, Tufts University School of Medicine) were cultured in DMEM supplemented with 20% fetal bovine serum, 2 mM glutamine and 1× kanamycin (growth medium, GM). Cellular differentiation was induced with DMEM supplemented with 2% horse serum and 1× insulin, transferring, selenium (Life Technologies). Human skeletal myocytes (CC-2561) were purchased from Clonetics. […] Following transfections, luciferase activity was determined using the Dual-Luciferase reporter assay system (Promega) on a microtiter luminescence detection system (MLX, Dynex). […]

4RE-luc and MCK-luc = test: Chromatin-integrated muscle-specific reporters in stable C2C12 clones; format: cell-based, mouse; settings: TSA in GM (presence of serum), 48 hours
Protocol: FIGS. 2A-D are graphs showing DI activation muscle-specific transcription in skeletal muscle cells. […] Luciferase activity was measured in non-treated cells cultured in either GM (GM) or DM (DM). Alternatively, C2C12 were exposed to sodium butyrate for 24 hours in GM and then switched to DM without sodium butyrate (Butyr/GM>DM) or treated with sodium butyrate when cultured in DM (Butyr/DM) before being analyzed for luciferase activity. […] Luciferase assays were performed after culturing the cells for 48 hours in DM without sodium butyrate. […] The reporter activity was also analyzed in cells differentiated in the absence of TSA (DM)
Mouse muscle myoblast C2C12 cells (obtained from the American Type Culture Collection, ATCC CRL-1772) and CC42 cells (from Dr. Kenneth Walsh, Tufts University School of Medicine) were cultured in DMEM supplemented with 20% fetal bovine serum, 2 mM glutamine and 1× kanamycin (growth medium, GM). Cellular differentiation was induced with DMEM supplemented with 2% horse serum and 1× insulin, transferring, selenium (Life Technologies). Human skeletal myocytes (CC-2561) were purchased from Clonetics. […] Following transfections, luciferase activity was determined using the Dual-Luciferase reporter assay system (Promega) on a microtiter luminescence detection system (MLX, Dynex). […]

`CC(/C=C/C(=O)NO)=C\[C@@H](C)C(=O)c1ccc(N(C)C)cc1` [TSA, trichostatin A] was tested, and the “formation of MHC-positive myotubes and MHC expression levels” value [1] was “greatly enhanced the formation of MHC-positive myotubes and increased the MHC expression levels” and the “activation of integrated 4RE-luc and MCK-luc templates” value (4RE-luc and MCK-luc) was “two-to-three”.

Reference: patent publication US7795208B2, “Methods of using deacetylase inhibitors to promote cell differentiation and regeneration” (The Salk Institute for Biological Study, priority 2001, dated 2010)
